The text below walks through data of ChEMBL document CHEMBL4665895, “Covalent Bridging of Corilagin Improves Antiferroptosis Activity: Comparison with 1,3,6-Tri-O-galloyl-β-d-glucopyranose” (ACS Med Chem Lett, 2020).

The structures appear in SMILES notation. Calls of active or inactive are those of the source. No cut-off for these calls is given here.

Assay [1] in a line: Antioxidant activity in pH 7.4 phosphate buffer assessed as PTIO radical scavenging activity after 1 hr by microplate reader based assay. In kind it is functional.
Assay [2] in a line: Antioxidant activity in pH 4.5 phosphate buffer assessed as PTIO radical scavenging activity after 1 hr by microplate reader based assay. It is filed as functional.
Assay [3] in a line: Antioxidant activity assessed as ferric ion reducing activity using FeCl3.H2O and TPTZ incubated for 30 mins by FRAP assay. It is filed as functional.
The nature of assay [4]: Antioxidant activity assessed as DPPH free radical scavenging activity after 5 mins by microplate reader based assay. It is filed as functional. Background: Loss of DPPH colour is used to gauge radical scavenging.
Assay [5] in a line: Metal chelating activity assessed as Fe2+-compound complex formation incubated for 5 mins by colorimetry.
In assay [6] the test system is Bone marrow cell. Nature of the assay: Anti-ferroptosis activity against erastin-induced ferroptosis in Sprague-Dawley rat bmMSC cells assessed as increase in cell viability at 0.47 to 4.7 uM preincubated for 12 hrs followed by compound addition and measured after 12 hrs by CCK8 assay. It is filed as functional, cell-based. As to conditions: dose microM 0.47-4.7, time 12.0 hrs. (In general: Tetrazolium assays rely on reduction of a dye to a coloured formazan, in cell work by metabolically active cells.)

For assay [7], the system named is Bone marrow cell. Nature of the assay: Anti-ferroptosis activity against erastin-induced ferroptosis in Sprague-Dawley rat bmMSC cells assessed as inhibition of lipid peroxidation at 3 ug/ml preincubated for 12 hrs followed by compound addition and measured after 12 hrs by C11-Bodipy fluorescent dye based microscopic analysis. In kind it is functional. The conditions noted are these: dose 3.0 µg/ml.

Assay [8] is described as follows: Anti-ferroptosis activity against erastin-induced ferroptosis in Sprague-Dawley rat bmMSC cells assessed as cellular death at 4.7 uM after 1 hr by AnnexinV-FITC/propidium iodide staining-based flow cytometric analysis (reference value: 3.73%). It is filed as functional, Bone marrow cell. For orientation: A flow cytometer gives signals particle by particle.
Assay [9] in a line: Anti-ferroptosis activity against erastin-induced ferroptosis in Sprague-Dawley rat bmMSC cells assessed as late cell death at 4.7 uM after 1 hr by AnnexinV-FITC/propidium iodide staining-based flow cytometric analysis (reference value: 19.9%). In kind it is functional, Bone marrow cell.
The nature of assay [10]: Anti-ferroptosis activity against erastin-induced ferroptosis in Sprague-Dawley rat bmMSC cells assessed as early cell death at 4.7 uM after 1 hr by AnnexinV-FITC/propidium iodide staining-based flow cytometric analysis (reference value: 10.4%). In kind it is functional, Bone marrow cell.
A short description of assay [11]: Anti-ferroptosis activity against erastin-induced ferroptosis in Spargue-Dawley rat bmMSCs cells assessed as cell viability at 4.7 uM after 1 hr by AnnexinV-FITC/propidium iodide staining based flow cytometry analysis (reference value: 65.9%). In kind it is functional. As to conditions: Bone marrow cell, read-out: Activity.
Assay [12] in a line: Potency index, ratio of trolox IC50 to test compound IC50 for antioxidant activity assessed as DPPH radical scavenging activity. It is filed as functional.
The nature of assay [13]: Antioxidant activity assessed as compound-DPPH adduct formation with covalent bridging by UHPLC-ESI-Q-TOF-MS analysis. It is filed as functional.
Assay [14] in a line: Metal chelating activity assessed as Fe2+-compound complex formation by measuring red shift by UV-visible spectrophotometry.

`Cc1c(C)c2c(c(C)c1O)CCC(C)(C(=O)O)O2` (racemic) [TROLOX]: the IC50 in [1] is 445 µM; in [2], 289 µM; in assay [3], 81 µM; in assay [4], 7 µM.

Take `O=C([O-])CC(O)(CC(=O)[O-])C(=O)[O-].[Na+].[Na+].[Na+]` [SODIUM CITRATE]: the IC50 in [5] was 14 µM.

Take `O=C(OC[C@H]1O[C@@H](OC(=O)c2cc(O)c(O)c(O)c2)[C@H](O)[C@@H](OC(=O)c2cc(O)c(O)c(O)c2)[C@@H]1O)c1cc(O)c(O)c(O)c1`: the result (in the assay with Bone marrow cell [6]; in the assay on Bone marrow cell [7]; in assay [13]; in assay [14]) was Active. The Activity is on record as 2.2% in [8], 9% in [9] and 10.3% in [10]. In addition, the viability at 4.7 µM in [11] was found to be 78.4%. In addition, the IC50 turned out to be 11 µM in assay [5]; 115 µM in assay [1]; 290 µM in assay [2]; 35 µM in assay [3]; 1 µM in assay [4]. In addition, the inhibition entry in assay [5], in assay [1], in assay [2], in assay [3] and in assay [4] was “Dose-dependent effect” each time. The Ratio IC50 in assay [12] came out at 6.5.

Turning to `O=C(O[C@@H]1O[C@@H]2COC(=O)c3cc(O)c(O)c(O)c3-c3c(cc(O)c(O)c3O)C(=O)O[C@H]([C@H]1O)[C@@H]2O)c1cc(O)c(O)c(O)c1` [CORILAGIN], the outcome (with Bone marrow cell [6]; in the assay with Bone marrow cell [7]; in [13]; in assay [14]) was Active. Also, the Activity in assay [8] is 2.7%; in assay [9], 7.8%; in [10], 9.2%. Besides, the viability at 4.7 µM in assay [11] was 80.2%. For the same compound, the IC50 in assay [5] was determined as 7 µM; in assay [1], 94 µM; in [2], 204 µM; in assay [3], 12 µM; in assay [4], 1 µM. The inhibition result in assay [5], in [1], in [2], in assay [3] and in [4] was “Dose-dependent effect” in each case. Besides, the Ratio IC50 in assay [12] was 8.

As a reminder, the IC50 is the concentration at which inhibition is half-maximal.
